Publication PMC5467173, “Blood-brain-barrier spheroids as an in vitro screening platform for brain-penetrating agents” (Nature Communications, 2017)

Experiments:
[1] = Stability in hCMEC/D3 working media containing 2% human serum; assay type: in vitro ADME; details: Cy5.5-CPP 5 μM in hCMEC/D3 working media (2% human serum), 37 °C, LC-MS extracted ion current, (EICt3/EICt0) × 100
Procedure: Cy5.5-angiopep and Cy5.5-scramble. Angiopep and scramble peptides (50 μM) were incubated in hCMEC/D3 working media (containing 2% human serum) at 37 °C. […] The material was resuspended in 30 μl of 50:50 water:acetonitrile containing 0.1% TFA. […] The process was repeated (n=3) for each peptide.

[2] = tested on: BBB spheroid surface barrier; test: Co-incubation with high molecular weight dextran (integrity of spheroid surface barrier); details: drug 10 μM with FITC-dextran 70 kDa 10 μg ml^−1, 24 h; 88 μm depth; nspheroid=3–6
Procedure: Multicellular BBB spheroids were formed through co-culturing astrocytes, HBVP and either HBMEC or hCMEC/D3 as described earlier for 48 h. Spheroids were incubated with increasing concentration of VEGF-A (between 5 and 100 ng ml^−1) and 10 μg ml^−1 of TRITC-Dextran (155 kDa; Sigma-Aldrich) or FITC-Dextran (70 kDa; Sigma-Aldrich) in the appropriate working medium for 24 h at 37 °C with 5% CO2. Spheroids were washed 3 times with PBS (5 min each), transferred into a Nunc Lab-Tek II thin-glass 8-well chambered coverglass (Thermo Scientific) and imaged under a confocal microscope as described earlier. Quantification of spheroid permeability to fluorescent dextran was performed using ImageJ software (http://imagej.net/Fiji). The mean fluorescence intensity of the core of each spheroid at 88 μm depth was quantified and plotted using GraphPad Prism (version 7.0 software).
To examine if angiopep-2 affects the overall permeability of the spheroid surface barrier, spheroids were co-incubated with 10 μM of TAMRA-angiopep (or TAMRA-scramble) and FITC-dextran (70 kDa; 10 μg ml^−1) as described earlier for 3 h at 37 °C on a rotator. […] The mean TAMRA and FITC fluorescence intensity of the core of each spheroid at 88 μm depth was quantified using ImageJ software and plotted using GraphPad Prism.

[3] = tested on: BBB spheroids (astrocytes, HBVP and hCMEC/D3 cells); test: Evaluation of small molecule transport into BBB spheroids using MALDI-MSI; assay type: in vitro ADME, human; details: 10 μM, 24 h, 37 °C; 12 μm sections; 30 μm pixel step; nspheroid=150, ntissue=2
Procedure: BBB spheroids were established (using astrocytes, HBVP and hCMEC/D3 cells) for 48 h as described earlier. Approximately 150 spheroids per group were pooled into a 1.5 ml microcentrifuge tube in 1 ml of hCMEC/D3 working media. BKM120 or Dabrafenib was added into each tube at a final concentration of 10 μM and incubated for 24 h at 37 °C under constant rotation. Spheroids were washed 5 × with wash buffer (150 mM ammonium acetate in HPLC grade water, pH 7), and then transferred into an UltraFlux 0.2 ml PCR tube (BioExpress) in 200 μl of wash buffer. The spheroids were then, pooled at the bottom of the tube, and snap-frozen in a dry ice/ethanol bath. The top of the frozen tube was mounted onto a cryostat holder, and the bottom of the tube containing the spheroids was sectioned into 12 μm slices using a Microm HM550 cryostat, with the chamber and the specimen holder chilled at −26 °C. Sectioned tissues embedded in the frozen wash buffer were thaw-mounted onto indium tin oxide (ITO) coated microscopic slides (Bruker Daltonics) for MALDI-MSI, and regular positively charged glass slides for haematoxylin and eosin (H/E) staining. The tissues were allowed to dry for at least 15 min in a dessicator. […]

[4] = cited from earlier work
Text: Because most drugs are non-fluorescent, we explored an alternative strategy to detect drugs within the BBB spheroids using matrix-assisted laser desorption/ionization mass spectrometry imaging (MALDI-MSI).

[5] = tested on: brain parenchyma; test: Ex vivo imaging of angiopep-2 in mouse brain after tail vein injection; details: Cy5.5-labelled peptide, 100 μg via tail vein, mice killed after 24 h
Procedure: Cy5.5-angiopep-2 or Cy5.5-scramble were diluted to a final concentration of 1 mg ml^−1 in 0.9% NaCl irrigation solution (Hospira, Lake Forest, IL). 100 μl of each peptide (total of 100 μg) was administered intravenously via tail vein injection. After 24 h, mice were killed (by CO2 asphyxiation), and immediately perfused with PBS followed by 10% formalin solution (Sigma-Aldrich). Brains were excised, and a coronal cut through the cerebral cortex was made with a sharp scalpel. The brains were washed several times with PBS containing 0.05% Tween-20, and incubated with DyLight 488 lectin (Vector Laboratories, Burlingame, CA) and Hoechst dye (Life Technologies; 1:1,000 dilution) for 1 h in PBS containing 0.02% Tween-20. This was followed by 3 washes (15 min each) with PBS containing 0.05% Tween-20. […] The brain tissue was imaged under a confocal microscope using a × 40 oil immersion objective. Z-slices captured through each spheroid (up to 100 μm-deep) were merged to generate a 2D maximum intensity projection using the ZEN blue imaging software (version 2012). Animal experiments described here are listed in the Brigham and Women’s Hospital Animal Experimentation Protocol 2016N000300 Translational Neurooncology Core (BWH IACUC approved 2016).

[6] = tested on: multicellular BBB spheroids (astrocytes, HBVP and HBMEC); test: Transport of fluorescently labelled peptides into multicellular BBB spheroids (primary HBMEC), confocal microscopy; assay type: in vitro ADME, human
Procedure: Multicellular BBB spheroids (composed of astrocytes, HBVP and HBMEC (or hCMEC/D3)) were established for 48–72 h as described earlier, and pooled into a 1.5 ml Lobind microcentrifuge tube (Eppendorf) in 1.0 ml HBMEC (or hCMEC/D3) working media. […] Spheroids were washed with PBS, fixed with 3.7% formaldehyde and imaged using a confocal microscope as described in earlier sections. The mean fluorescence intensity inside each spheroid at 88 μm depth was quantified using ImageJ software and plotted using GraphPad Prism. […] To inhibit transcytosis, spheroids were incubated with each peptide (5 μM final concentration) in cold working medium (on ice) for 3 h. For cryo-sectioning, spheroids were embedded in optimum cutting temperature compound (Tissue-Tek, Sakura Finetek, Torrance, CA), frozen on dry ice and sliced into 10 μm sections. Spheroid sections were imaged under a Nikon epi-fluorescence inverted microscope.

[7] = tested on: hCMEC/D3 / HBVP / astrocyte triple co-culture transwell model; assay type: in vitro ADME, human
Procedure: Both the apical and basal sides of 24-well transwell insert (0.4 μm pore size; Greiner Bio-One, Cat. # 662,641) were coated with rat-tail collagen (5 μg ml^−1 in PBS; Olaf Pharmaceuticals, Worcester, MA) overnight at 4 °C. Each transwell was inverted, and 5 × 10^4 HBVP cells (in 50 μl pericyte medium) were seeded on the basal side of the insert. The inserts were encased in an inverted plate, and allowed to adhere in a humidified incubator for 2 h at 37 °C with 5% CO2. Inserts were then removed and placed within a 24-well plate (upright) containing 300 μl pericyte medium, ensuring that the HBVP cells on the basal side of the insert was properly submerged in the medium. […] hCMEC/D3 cells were seeded on the apical side of the insert (in 200 μl volume) in EGM-2. In a separate 24-well plate, 5.0 × 10^4 astrocytes were seeded in AGM. […] TEER measurements of inserts without cells were subtracted from TEER values obtained from inserts containing cells (measured in ohms (Ω)). […]
After 84 h of co-culture in the transwell, TAMRA- angiopep-2 or TAMRA-scramble were added into the apical side of the insert at a final concentration of 10 μM. […] To assess the apical-to-basolateral permeability, the mean fluorescence intensity of the basal side of the transwell was quantified over time using ImageJ software and plotted using GraphPad Prism.

[8] = tested on: multicellular BBB spheroids (astrocytes, HBVP and hCMEC/D3); test: Transport of fluorescently labelled peptides / CPP screen in multicellular BBB spheroids (hCMEC/D3), confocal microscopy; assay type: in vitro ADME, human
Procedure: Sterile 1% agarose (w/v) was prepared by adding […] of molecular biology grade agarose (Bio-rad) into 50 ml of PBS in a conical flask, and boiled in a microwave until completely dissolved. The melted agarose solution was transferred into a sterile tissue culture hood, and 50 μl of the solution was dispensed into each well of a 96-well plate while it was still hot using a multi-channel pipette, and allowed to cool/solidify (∼15 min). Primary human astrocytes, HBVP and HBMEC were released by trypsin/EDTA (Thermo Scientific) and resuspended in HBMEC working medium. The concentration of each cell type was determined using a haemocytometer. 1 × 10^3 of each cell type was seeded onto the agarose gel in each well of the 96-well plate in a 1:1:1 ratio (final volume=100 μl). Cells were placed in a humidified incubator at 37 °C with 5% CO2, and 95% natural air for 48–72 h to allow for the assembly of multicellular BBB spheroids. For spheroid formation using the immortalized hCMEC/D3 EC line: hCMEC/D3, astrocytes and HBVP were released by trypsin/EDTA and resuspended in hCMEC/D3 working medium. 1.5 × 10^3 of each cell type were seeded onto the agarose gel in each well of the 96-well plate in a 1:1:1 ratio, and spheroids were allowed to form as described above.
Angiopep-2 (or scramble) peptide labelled with a Cy5 was added into each tube at a final concentration of 5 and 10 μM, and incubated for 3 h at 37 °C on a rotator. Spheroids were washed with PBS, fixed with 3.7% formaldehyde and imaged using a confocal microscope as described in earlier sections. […] The same methodology was applied for angiopep-2/scramble peptide labelled with a TAMRA (tetramethylrhodamine) dye. To inhibit transcytosis, spheroids were incubated with each peptide (5 μM final concentration) in cold working medium (on ice) for 3 h. For cryo-sectioning, spheroids were embedded in optimum cutting temperature compound (Tissue-Tek, Sakura Finetek, Torrance, CA), frozen on dry ice and sliced into 10 μm sections. Spheroid sections were imaged under a Nikon epi-fluorescence inverted microscope. […]

Molecule: RKKRRQRRR [HIV-1 Tat, established brain-penetrating standard]
- product remaining after 3 h in working media [1]: 50%

Molecule: Nc1cc(C(F)(F)F)c(-c2cc(N3CCOCC3)nc(N3CCOCC3)n2)cn1 [BKM120]
- Effect on ability of BBB spheroids to restrict entry of high molecular weight dextran [2]: did not affect
- Drug detected in sections of BBB spheroids by MALDI-MSI [3]: dramatic accumulation
- BBB penetrance [4]: known to cross the BBB

Molecule: angiopep-2
- Accumulation in the brain parenchyma in vivo (fluorescence of brain cryosections) [5]: extravasation and accumulation
- Influx of TAMRA-labelled peptide on co-incubation with FITC-dextran ([6]; 10 μM peptide, FITC-dextran 70 kDa 10 μg ml^−1, 3 h, 37 °C, 88 μm depth, nspheroid=3–6, nexperiment=3, versus scrambled peptide): significantly higher influx
- Peptide level in the core of fixed, cryosectioned spheroids (fluorescence microscopy) ([6]; 10 μm cryosections, epi-fluorescence): high level
- Influx of Cy5-labelled peptide at 4 °C (transcytosis inhibited) versus 37 °C ([6]; spheroids with primary HBMECs, 10 μM, 3 h, 88 μm depth): significantly reduced
- Influx of Cy5-labelled peptide into spheroid (mean Cy5 intensity at 88 μm depth) ([6]; spheroids with primary HBMECs, 5 and 10 μM, 3 h, 37 °C, confocal microscopy, compared with scrambled control, nspheroid=10, nexperiment=3): substantial influx
- Apical-to-basolateral permeability in co-culture transwell compared to inserts with no ECs [7]: significantly lower permeability
- Transwell permeability of angiopep-2 versus scrambled control [7]: unable to differentiate

Molecule: CC(C)(C)c1nc(-c2cccc(NS(=O)(=O)c3c(F)cccc3F)c2F)c(-c2ccnc(N)n2)s1 [dabrafenib]
- Effect on ability of BBB spheroids to restrict entry of high molecular weight dextran [2]: did not affect
- Drug detected in sections of BBB spheroids by MALDI-MSI [3]: not detected
- BBB penetrance [4]: limited BBB penetrance

Molecule: VSALK [Bip(2), Cy5.5-labelled hydrophobic CPP from natural protein]
- Influx rate at earlier time points (15 min–1 h) [8]: highest influx rate

Molecule: VPALR [Bip(1), Cy5.5-labelled hydrophobic CPP from natural protein]
- Influx rate at earlier time points (15 min–1 h) [8]: highest influx rate

Molecule: LRRERQSRLRRERQSR [DPV15]
- Influx rate at earlier time points (15 min–1 h) [8]: highest influx rate
